# Laboratory results published in US20200157048A1, “(2E,4E)-5-PHENYL-PENTA-2,4-DIEN-1-ONE DERIVATIVE” (BIOWAY., INC, priority 2018, published 2020).
# Key:
# Assay type in all cases: cell-based, Human
# Conditions in all cases: steatosis-induced (OA/PA) Huh-7 cells; 10 μM; 24 hours
# Ck2α mRNA = test: qRT-PCR Ck2α mRNA level in steatosis-induced Huh-7 cells
# Description: (§1) In Experimental Example 5, the Huh-7 cells were plated in 6 wells at 4×10^5 cells/mL and incubated under an atmosphere containing 5% CO2 at 37° C.
# (§2) One day later, the cell density approached about 80 to 90%. The medium was changed to an FBS-free RPMI1640 medium, and incubated under an atmosphere containing 5% CO2 at 37° C. for 24 hours.
# (§3) Huh-7 cells of each well, excluding control cells, were pretreated with an OA/PA mixture for one hour to induce steatosis. The control cells were pretreated with 1% FA-free BSA.
# (§4) Each well was treated with 10 μM of a test compound, and then the cells were incubated for 24 hours. The control cells and OA/PA-treated cells were treated with DMSO. Cells of a positive control were treated with 10 μM of resveratrol, 10 μM of piperine, and 10 μM of YU2014. The medium was entirely aspirated, and the cells were washed with PBS (phosphate buffered saline, Corning, Manassas, Va., USA) two times.
# (§5) Total RNA was extracted using a RNeasy RNA isolation kit (Qiagen, Hilden, Germany).
# (§6) 10 μL of β-mercaptoethanol (Sigma-Aldrich) per 1 mL of lysis buffer was added, thereby preparing an RNA lysis buffer. […]
# (§7) An RNA concentration was measured at O.D. 260 nm using a nanophotometer N60 (Implen, Munich, Germany). The concentration and purity of RNA were measured at O.D. 260/280 nm and calculated as a ratio. […]
# (§8) Quantitative analyses for the genes in Table 3 were performed.
# Sirt1 mRNA = test: qRT-PCR Sirt1 mRNA level in steatosis-induced Huh-7 cells
# Description: as §1, §2, §3, §4, §5, §6, §7, §8
# Pparα mRNA = test: qRT-PCR Pparα mRNA level in steatosis-induced Huh-7 cells
# Description: as §1, §2, §3, §4, §5, §6, §7, §8
# Fgf21 mRNA = test: qRT-PCR Fgf21 mRNA level in steatosis-induced Huh-7 cells
# Description: as §1, §2, §3, §4, §5, §6, §7, §8
SMILES,Ck2α mRNA level (FIG. 19) (Ck2α mRNA),Sirt1 mRNA level (FIG. 16) (Sirt1 mRNA),Pparα mRNA level (FIG. 10) (Pparα mRNA),Fgf21 mRNA level (FIG. 12) (Fgf21 mRNA)
"CCC(=O)N1CCN(C(=O)/C=C/C=C/c2ccc(OC)cc2)CC1 [R-18, (2E,4E)-5-(4-methoxyphenyl)-1-(4-propionylpiperazine-1-yl)penta-2,4-dien-1-one]",greatly reduced,greatly increased,–,–
"CCOC(=O)N1CCN(C(=O)/C=C/C=C/c2ccc(OC)cc2)CC1 [R-23, Ethyl 4-((2E,4E)-5-(4-methoxyphenyl)penta-2,4-dienoyl)piperazine-1-carboxylate]",–,greatly increased,–,–
"CCOC(=O)N1CCN(C(=O)/C=C/C=C/c2ccc(SC)cc2)CC1 [R-24, Ethyl 4-((2E,4E)-5-(4-(methylthio)phenyl)penta-2,4-dienoyl)piperazine-1-carboxylate]",greatly reduced,–,–,–
"O=C(/C=C/C=C/c1ccc2c(c1)OCO2)N1CCCCC1 [piperine, Piperine]",–,–,no effect,no effect
